Experimental data taken from patent US11401510B2, “Generation of airway basal stem cells from human pluripotent stem cells” (TRUSTEES OF BOSTON UNIVERSITY, priority 2020, dated 2022).

Assays:
[1] = molecular target: CFTR (F508del) in ALI cultures generated from CF iPSCs (Homo sapiens, UniProt P13569, DEL508-508); experiment: Ussing chamber analysis of CFTR-dependent current, CF ALI cultures; type: cell-based; details: CF (F508del homozygous) iPSC-derived ALI cultures, after amiloride
Procedure: Pre- and post-gene corrected paired syngeneic iPSC clones (hereafter CF and Corr CF) were differentiated into iBCs in the present protocol, sorted using the present antibody-based-method and generated ALI cultures composed of BCs, SCs, and MCCs (FIG. 6A). CFTR-dependent current, representing ion flux regulated by apically localized CFTR, was measured using the gold-standard Ussing chamber approach.
Ussing chamber experiments were performed on EasyMount Ussing Chamber Systems at voltage clamp mode, and Acquiciliare™ & Analyze software (Physiologic Instruments) was employed to record and analyze data. […] Subsequently, 10 pM forskolin (Sigma) were administered to stimulate chloride current. […] For BU3 NGPT derived ALI, 5 pM VX-770, CFTR modulator, was treated subsequent to forskolin. The resulting change in short circuit current was calculated as DIsc. The data were expressed in mean±SD.

[2] = molecular target: CFTR in ALI cultures generated from corrected CF iPSCs (Corr CF) (Homo sapiens, UniProt P13569); experiment: Ussing chamber analysis of CFTR-dependent current, corrected CF ALI cultures; details: Corr CF (gene-corrected) iPSC-derived ALI cultures, after amiloride; mean±SD, n=3
Chain of CFTR in ALI cultures generated from corrected CF iPSCs (Corr CF) (P13569 whole entry): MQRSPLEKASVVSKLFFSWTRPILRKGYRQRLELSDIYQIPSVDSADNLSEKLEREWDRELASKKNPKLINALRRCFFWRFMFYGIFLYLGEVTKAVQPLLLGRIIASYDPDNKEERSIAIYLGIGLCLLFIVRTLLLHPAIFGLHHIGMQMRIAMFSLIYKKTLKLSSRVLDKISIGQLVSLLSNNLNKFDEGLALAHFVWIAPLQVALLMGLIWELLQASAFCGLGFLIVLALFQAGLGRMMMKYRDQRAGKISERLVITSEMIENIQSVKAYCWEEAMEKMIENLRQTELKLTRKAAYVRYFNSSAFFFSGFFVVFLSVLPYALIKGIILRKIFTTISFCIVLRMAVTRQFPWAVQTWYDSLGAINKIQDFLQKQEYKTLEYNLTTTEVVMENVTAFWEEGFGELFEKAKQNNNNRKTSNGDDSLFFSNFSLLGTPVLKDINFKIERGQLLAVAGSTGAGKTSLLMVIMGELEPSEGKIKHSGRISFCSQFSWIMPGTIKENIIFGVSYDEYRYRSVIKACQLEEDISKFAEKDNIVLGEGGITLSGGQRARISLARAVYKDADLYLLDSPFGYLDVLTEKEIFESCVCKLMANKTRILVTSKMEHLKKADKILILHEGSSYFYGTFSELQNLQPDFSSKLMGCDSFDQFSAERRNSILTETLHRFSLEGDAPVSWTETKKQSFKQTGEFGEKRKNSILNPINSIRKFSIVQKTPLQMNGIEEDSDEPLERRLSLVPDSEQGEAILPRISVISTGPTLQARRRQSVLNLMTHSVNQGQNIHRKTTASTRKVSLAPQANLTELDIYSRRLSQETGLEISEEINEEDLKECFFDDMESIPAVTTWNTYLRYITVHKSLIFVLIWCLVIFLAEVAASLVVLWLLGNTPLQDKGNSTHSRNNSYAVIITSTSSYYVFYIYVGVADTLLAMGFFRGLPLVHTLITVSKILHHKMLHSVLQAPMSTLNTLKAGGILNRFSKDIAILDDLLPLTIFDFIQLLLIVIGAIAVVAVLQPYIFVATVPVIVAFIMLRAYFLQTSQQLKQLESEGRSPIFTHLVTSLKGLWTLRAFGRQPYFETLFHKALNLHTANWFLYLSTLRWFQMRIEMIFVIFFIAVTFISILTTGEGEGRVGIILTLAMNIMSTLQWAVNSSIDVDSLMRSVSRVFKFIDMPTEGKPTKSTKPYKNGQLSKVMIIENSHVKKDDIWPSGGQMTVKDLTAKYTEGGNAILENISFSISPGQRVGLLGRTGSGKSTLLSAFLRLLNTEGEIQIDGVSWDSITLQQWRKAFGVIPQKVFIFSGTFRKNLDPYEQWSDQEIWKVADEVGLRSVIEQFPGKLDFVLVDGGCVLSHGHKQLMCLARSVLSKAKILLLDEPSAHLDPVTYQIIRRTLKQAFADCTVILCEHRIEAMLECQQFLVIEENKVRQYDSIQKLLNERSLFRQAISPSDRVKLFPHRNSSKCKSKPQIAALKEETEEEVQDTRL
Procedure: For CF modeling, gene editing was used to correct the F508del CFTR mutation. Pre- and post-gene corrected paired syngeneic iPSC clones (hereafter CF and Corr CF) were differentiated into iBCs in the present protocol, sorted using the present antibody-based-method and generated ALI cultures composed of BCs, SCs, and MCCs (FIG. 6A). CFTR-dependent current, representing ion flux regulated by apically localized CFTR, was measured using the gold-standard Ussing chamber approach.
Ussing chamber experiments were performed on EasyMount Ussing Chamber Systems at voltage clamp mode, and Acquiciliare™ & Analyze software (Physiologic Instruments) was employed to record and analyze data. Briefly, Transwell inserts were mounted into chambers and bathed in low chloride Ringer's solution (1.2 mM NaCl, 140 mM Na-gluconate, 25 mM NaHCO3, 3.33 mM KH2PO4, 0.83 mM K2HPO4, 1.2 mM CaCl2, 1.2 mM MgCl2, 10 mM glucose) at apical and Ringer's solution (120 mM NaCl, 25 mM NaHCO3, 3.33 mM KH2PO4, 0.83 mM K2HPO4, 1.2 mM CaCl2, 1.2 mM MgCl2, 10 mM glucose) at basolateral side of monolayer. After base line is stabilized, 100 pM amiloride (Sigma) applied to both sides of the chamber to carry out complete inhibition of ENaC (Epithelial sodium channel). Subsequently, 10 pM forskolin (Sigma) were administered to stimulate chloride current. […] The resulting change in short circuit current was calculated as DIsc. […]

[3] = test system: BU3 NGPT iBC-derived ALI cultures; experiment: Mucus cell metaplasia model: IL-13 treatment of iBC-derived ALI cultures; type: cell-based, human
Procedure: Human airway epithelium has diverse biologic and physiologic roles, some of which are uniquely affected by disease. it was tested whether iBC-derived ALI cultures could recapitulate features of the three airway disorders with distinct epithelial characteristics: (1) mucus cell metaplasia in asthma; (2) abnormal ion-flux seen in CF; and (3) defective ciliary beating seen in PCD. First, it was tested whether iBC-derived ALI cultures could recapitulate the mucus cell metaplasia seen in asthma. Interleukin-13 (IL-13) is an inflammatory cytokine in asthma and can induce mucus metaplasia. A number of studies, in mice and primary human airway epithelial cell cultures, have found IL-13 leads to increased MUC5AC+ cell numbers via the activation of STAT6 and SPDEF, at the expense of MCCs and MUC5B+ cell frequencies (Kondo et al., 2002; Seibold, 2018; Woodruff et al., 2009).
BU3 NGPT iBSC-derived ALI culture was prepared as described above. Ten days after air-lifted, cells were treated with 10 ng/ml IL-13 and cultured for 10 days prior to the assessments. Mucus cell metaplasia was assessed by immunofluorescence staining for the increment of MUC5AC expressing cells or gene expression changes via qRT-PCR. Quantification of MUC5AC+ cells was performed using ImageJ™ software by manually counting MUC5AC+ cells in 3 randomly selected fields per well (n=3 wells per condition).
RNA was extracted by first lysing cells in QIAzol (QIAGEN) and subsequently using the RNeasy Mini kit (QIAGEN). Taqman Fast Universal PCR mastermix (Applied Biosystems) were used to reverse transcribe RNA into cDNA and analyzed during 40 cycles of real time PCR using Taqman probes (Applied Biosystems). Relative gene expression, normalized to 18S control, was calculated as fold change in 18S-normalized gene expression, over baseline, using the 2(-DDCT) method. Baseline, defined as fold change=1, was set to undifferentiated iPSCs. If undetected, a cycle number of 40 was assigned to allow fold change calculations.

[4] = IL-13 treated vs untreated, qRT-PCR

Chain of CFTR (F508del) in ALI cultures generated from CF iPSCs (P13569 with tags, fused parts or gaps DEL508-508): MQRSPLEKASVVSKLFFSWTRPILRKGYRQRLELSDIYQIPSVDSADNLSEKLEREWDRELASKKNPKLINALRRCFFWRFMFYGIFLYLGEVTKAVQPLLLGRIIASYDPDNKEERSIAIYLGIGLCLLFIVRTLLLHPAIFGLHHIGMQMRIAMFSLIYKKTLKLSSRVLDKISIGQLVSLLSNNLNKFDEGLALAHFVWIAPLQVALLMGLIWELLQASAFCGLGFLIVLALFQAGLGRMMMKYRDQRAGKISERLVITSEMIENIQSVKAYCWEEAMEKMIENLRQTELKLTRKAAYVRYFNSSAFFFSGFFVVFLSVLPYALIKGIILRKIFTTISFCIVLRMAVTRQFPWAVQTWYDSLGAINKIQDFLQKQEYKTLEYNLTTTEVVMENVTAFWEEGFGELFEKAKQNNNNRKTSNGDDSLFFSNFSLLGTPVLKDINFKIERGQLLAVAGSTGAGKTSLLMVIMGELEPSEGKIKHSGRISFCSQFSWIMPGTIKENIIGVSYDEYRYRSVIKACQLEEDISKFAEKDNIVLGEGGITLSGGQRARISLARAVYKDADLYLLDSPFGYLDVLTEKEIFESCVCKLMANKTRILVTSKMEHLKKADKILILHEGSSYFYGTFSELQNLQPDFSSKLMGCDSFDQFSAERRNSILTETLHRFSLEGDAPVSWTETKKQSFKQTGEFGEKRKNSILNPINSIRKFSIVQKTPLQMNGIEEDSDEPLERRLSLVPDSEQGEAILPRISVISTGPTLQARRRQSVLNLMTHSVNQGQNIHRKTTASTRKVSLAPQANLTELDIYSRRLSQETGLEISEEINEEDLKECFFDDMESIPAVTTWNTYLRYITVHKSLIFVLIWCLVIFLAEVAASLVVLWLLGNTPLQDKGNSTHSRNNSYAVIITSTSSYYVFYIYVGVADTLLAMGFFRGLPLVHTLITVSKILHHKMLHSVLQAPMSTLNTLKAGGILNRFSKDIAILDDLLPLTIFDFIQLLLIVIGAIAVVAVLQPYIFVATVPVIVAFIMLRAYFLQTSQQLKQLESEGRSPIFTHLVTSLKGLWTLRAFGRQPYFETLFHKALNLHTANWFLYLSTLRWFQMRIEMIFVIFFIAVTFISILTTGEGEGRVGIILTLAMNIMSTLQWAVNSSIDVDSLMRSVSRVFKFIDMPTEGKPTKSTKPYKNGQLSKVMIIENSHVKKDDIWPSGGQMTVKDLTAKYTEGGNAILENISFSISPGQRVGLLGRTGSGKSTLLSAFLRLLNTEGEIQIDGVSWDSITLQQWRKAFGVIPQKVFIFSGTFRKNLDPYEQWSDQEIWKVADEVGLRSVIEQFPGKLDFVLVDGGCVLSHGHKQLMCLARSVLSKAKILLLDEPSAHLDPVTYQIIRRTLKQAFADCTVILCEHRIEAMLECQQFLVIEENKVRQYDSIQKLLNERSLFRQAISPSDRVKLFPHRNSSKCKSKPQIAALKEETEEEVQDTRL

Row | Substance | AIsc (change in short circuit current) [1] | AIsc (change in short circuit current) [2] | fold increase in numbers of MUC5AC+ cells ([3]; 10 ng/ml IL-13 added on day 10 of ALI differentiation, 10 days, vs untreated, p=0.002) | MUC5B expression [3, 4] | expression of goblet cell transcriptional regulator SPDEF [3, 4]
1 | CFTRInh-172 | −0.8 pA/cm2 | −43.2±2.5 pA/cm2 |  |  | 
2 | IL-13: inflammatory Th-2 cytokine in asthma that can induce mucus metaplasia |  |  | 1.75 fold | decrease | increased expression
